# Results as given in patent US8652823B2, “Strain for butanol production with increased membrane unsaturated trans fatty acids” (Butamax(TM) Advanced Biofuels LLC, priority 2008, dated 2014).
# Assays:
# Type in all cases: cell-based, Lactobacillus plantarum
# [1] = test system: L. plantarum PN0512; assay: Growth yield of fatty acid fed cultures in the presence of 1-butanol; conditions: for OD600 (growth yield): overnight growth at 30° C., average of biological replicates
# Description: (§1) Growth medium was semi-synthetic LAB medium, pH7, with bovine serum albumin (BSA) used as a carrier. […] The composition of this medium is as follows:
# (§2) All medium ingredients were purchased from Sigma Chemical Company (St. Louis, Mo.) except yeast extract and casamino acids, which were purchased from Beckton, Dickinson and Co (Sparks, Md.). Free fatty acids, added to a final concentration of […] from 1% ethanol stock solutions (stored at −20° C.), were purchased from Sigma Chemical Company (St Louis, Mo.), Isobutanol, 1-butanol, 2-butanol, and methyl ethyl ketone (MEK) were purchased from Sigma Chemical Company (St. Louis, Mo.).
# (§3) A working stock of Lactobacillus plantarum PN0512 (ATCC # PTA-7727) was prepared to use as a consistent source of inoculum. Cultures were grown in MRS medium (Acumedia Manufacturers, Inc. Lansing, Mich.) at 30° C. overnight. Glycerol was added to a final concentration of 12.5% and aliquots were frozen at −80° C. One aliquot was thawed at room temperature and used to inoculate all tubes in an experiment and then discarded.
# (§4) For growth yield experiments, 5 ml of medium with fatty acids and several concentrations of 1-butanol, isobutanol, 2-butanol, or MEK in 15 ml screw cap tubes was inoculated with 12.5 μl of the working stock giving an initial OD600 of 0.012. The caps were tightly sealed and incubated at 30° C. on a roller drum for 20 to 26 hours, at which time 1.0 ml was removed and OD600 was measured with a blank of medium amended with the fatty acid. All solvent concentrations are reported as % (w/v).
# (§5) Cultures were prepared as described in General Methods.
# [2] = test system: L. plantarum PN0512; assay: Growth yield of fatty acid fed cultures in the presence of isobutanol; conditions: for OD600 (growth yield): 20 hours at 30° C., average of two experiments
# Description: as §1, §2, §3, §4
# Growth in the presence of these fatty acids and various concentrations of isobutanol was tested. Cultures were prepared as described in General Methods.
# [3] = test system: L. plantarum PN0512; assay: Growth yield of fatty acid fed cultures in the presence of 2-butanol; conditions: for OD600 (growth yield): overnight growth at 30° C., average of biological replicates
# Description: as §1, §2, §3, §4, §5
# [4] = test system: L. plantarum PN0512; assay: Growth yield of fatty acid fed cultures in the presence of MEK; conditions: for OD600 (growth yield): overnight growth at 30° C., average of biological replicates
# Description: as §1, §2, §3, §4, §5
SMILES,OD600 (growth yield) ([1]; 1-butanol 0 % (w/v)),OD600 (growth yield) ([1]; 1-butanol 2.0 % (w/v)),OD600 (growth yield) ([1]; 1-butanol 2.25 % (w/v)),OD600 (growth yield) ([1]; 1-butanol 2.5 % (w/v)),OD600 (growth yield) ([1]; 1-butanol 2.75 % (w/v)),OD600 (growth yield) ([1]; 1-butanol 3.0 % (w/v)),OD600 (growth yield) ([2]; isobutanol 1.5 % w/v),OD600 (growth yield) ([2]; isobutanol 2.0 % w/v),OD600 (growth yield) ([2]; isobutanol 2.5 % w/v),OD600 (growth yield) ([2]; isobutanol 2.7 % w/v),OD600 (growth yield) ([2]; isobutanol 2.9 % w/v),OD600 (growth yield) ([2]; isobutanol 3.1 % w/v),OD600 (growth yield) ([2]; isobutanol 3.3 % w/v),OD600 (growth yield) ([2]; isobutanol 3.5 % w/v),OD600 (growth yield) ([3]; 2-butanol 0 % w/v),OD600 (growth yield) ([3]; 2-butanol 2.0 % w/v),OD600 (growth yield) ([3]; 2-butanol 4.0 % w/v),OD600 (growth yield) ([3]; 2-butanol 4.5 % w/v),OD600 (growth yield) ([3]; 2-butanol 4.7 % w/v),OD600 (growth yield) ([3]; 2-butanol 4.9 % w/v),also measured
"CCCCCCCC/C=C/CCCCCCCC(=O)O [elaidic acid, (E)-octadec-9-enoic acid]",1.508,1.039,1.003,0.559,0.095,0.009,1.145,1.100,0.922,0.606,0.281,0.122,0.072,0.042,1.490,1.430,1.030,0.400,0.186,0.088,growth yield higher than in the oleic acid fed cultures ([1]; 2.5% w/v 1-butanol): greater than 3 fold; growth yield compared with the oleic acid fed cultures ([1]; concentrations greater than 2% 1-butanol): greater; growth yield higher than in the oleic acid fed cultures ([2]; 2.5% w/v isobutanol): 78%; growth yield compared with the oleic acid fed cultures ([2]; concentrations greater than 2% isobutanol): greater; tolerance to 2-butanol when compared to the oleic acid fed culture [3]: improved tolerance; OD600 (growth yield) ([3]; 2-butanol 5.1 % w/v): 0.038; OD600 (growth yield) ([3]; 2-butanol 5.3 % w/v): 0.030; OD600 (growth yield) ([3]; 2-butanol 5.5 % w/v): 0.008; growth yield higher than in the oleic acid fed cultures ([3]; 4.5% w/v 2-butanol): 4 fold; tolerance to MEK as compared with oleic acid fed cultures [4]: did not have improved tolerance to MEK; OD600 (growth yield) ([4]; MEK 0 % (w/v)): 1.548; OD600 (growth yield) ([4]; MEK 3.5 % (w/v)): 1.0041; OD600 (growth yield) ([4]; MEK 4.0 % (w/v)): 0.9105; OD600 (growth yield) ([4]; MEK 4.5 % (w/v)): 0.8871; OD600 (growth yield) ([4]; MEK 5.0 % (w/v)): 0.3235; OD600 (growth yield) ([4]; MEK 5.5 % (w/v)): 0.1477
"CCCCCCCC/C=C\CCCCCCCC(=O)O [oleic acid, reference compound]",1.509,1.026,0.611,0.161,0.061,0.003,1.110,1.130,0.519,0.387,0.095,0.063,0.035,0.015,1.480,1.410,0.431,0.100,0.067,0.040,OD600 (growth yield) ([3]; 2-butanol 3.0 % w/v): 1.130; OD600 (growth yield) ([3]; 2-butanol 5.1 % w/v): 0.030; OD600 (growth yield) ([3]; 2-butanol 5.3 % w/v): 0.004; OD600 (growth yield) ([3]; 2-butanol 5.5 % w/v): 0.004; OD600 (growth yield) ([4]; MEK 0 % (w/v)): 1.539; OD600 (growth yield) ([4]; MEK 3.5 % (w/v)): 1.002; OD600 (growth yield) ([4]; MEK 4.0 % (w/v)): 0.9446; OD600 (growth yield) ([4]; MEK 4.5 % (w/v)): 0.942; OD600 (growth yield) ([4]; MEK 5.0 % (w/v)): 0.6828; OD600 (growth yield) ([4]; MEK 5.5 % (w/v)): 0.5004
